The record followed here is US12534699B2, “Method for promoting growth of bacteria of genus Bifidobacterium” (KABUSHIKI KAISHA YAKULT HONSHA, priority 2019, dated 2026).

Experiment [1] concerns Bifidobacterium breve YIT 12272 (BbY). Briefly: Culture of BbY in skimmed milk culture medium with L-cystine or L-cysteine (simultaneous / individual heating). The following applies: for growth rate of the viable cell count, simultaneous versus individual heating (growth curve): final concentration 0.03% (w/v), FIG. 2; for viable cell count and acidity versus culture medium not containing L-cystine and L-cysteine: simultaneous heating culture medium (skimmed milk or whey), 0.001 to 0.1% (w/v), FIGS. 3 and 4; for concentration at which the viable cell count was maximum: skimmed milk simultaneous heating culture medium, culture time 9 hours. The experiment is classed as cell-based. Here is the method: (§1) Bifidobacterium breve YIT 12272 (hereinafter, referred to as BbY), Bifidobacterium bifidum YIT 10347 (hereinafter, referred to as BF-1), Lactobacillus casei YIT 9029 (hereinafter, referred to as YIT 9029), and Lactobacillus acidophilus YIT 0198 (hereinafter, referred to as YIT 0198) were used.
A skimmed milk powder (ABC, manufactured by MEGMILK SNOW BRAND Co., Ltd.) was dissolved in RO water at 12% (w/v), the solution was dispensed in 10 mL aliquots in a rimmed medium-sized test tube while replacing the headspace with nitrogen gas and sealed with a butyl rubber stopper. […] In addition, a skimmed milk culture medium (simultaneous heating culture medium) was prepared in anaerobic conditions by adding an L-cystine (manufactured by Kyowa Hakko Bio Co., Ltd.) aqueous suspension or an L-cysteine hydrochloride (manufactured by Nichiri Kagaku Co., Ltd.) aqueous solution to a skimmed milk culture medium at a final concentration of 0.05 (w/v) % and performing heat sterilization after the addition of the suspension or the solution, and a skimmed milk culture medium (individual heating culture medium) was prepared in anaerobic conditions by adding the suspension or the solution to a skimmed milk culture medium at a final concentration of 0.05 (w/v) % after heat sterilization and immediately before inoculation. Here, the L-cystine aqueous suspension and the L-cysteine hydrochloride aqueous solution were prepared as a 5% (w/v) aqueous suspension and a 5% (w/v) aqueous solution, respectively, and were added to each culture medium at an amount of 1% (v/v). In order to unify the changes in the concentration and the changes in the redox potential of samples due to the addition of the solution, 1% (v/v) of sterilized water was added to the simultaneous heating culture medium immediately before inoculation, to the individual heating culture medium before heating, and to the additive-free culture medium before heating and immediately before inoculation, i.e., twice.
When bacteria were inoculated, inoculation was performed while replacing the headspace of the container with nitrogen gas, and the nitrogen gas was sealed with a butyl rubber stopper, followed by culture. The culture was performed in a thermostat water bath set to 37° C. for 12 hours.
The pH of a culture medium or a bacterial solution was measured using a desk-top pH meter (F52, manufactured by HORIBA, Ltd.).
The amount of a 0.1 N sodium hydroxide aqueous solution for 9.0 g of a bacterial solution required to reach a pH of 8.5 was defined as acidity. The measurement was performed using an automatic titrator (manufactured by HIRANUMA Co., Ltd.).
Regardless of the bacterial strain, a bacterial solution was appropriately diluted with a 0.85% (w/v) sodium chloride aqueous solution (physiological saline solution). The diluted bacterial solution was inoculated with a spiral plater EDDY JET (manufactured by IUL Instruments GmbH) on a plate culture medium of TOS propionate agar medium (manufactured by Yakult Pharmaceutical Industry Co., Ltd.) in the case of bacteria of the genus Bifidobacterium and a plate culture medium of BCP Added Plate Count medium (manufactured by EIKEN CHEMICAL CO., LTD.) in the case of bacteria of the genus Lactobacillus, followed by culture at 37° C. for 48 to 72 hours. The grown colonies were counted as the viable cell count. The bacteria of the genus Lactobacillus were cultured in aerobic conditions, and the bacteria of the genus Bifidobacterium were cultured in anaerobic conditions (Anaero Pack, manufactured by MITSUBISHI GAS CHEMICAL COMPANY, INC.). Colonies were counted using a colony counter ProtoCOL (manufactured by Synoptics Ltd.).
As in Example 1, each simultaneous heating culture medium of milk and L-cystine or L-cysteine was prepared. The addition concentration of L-cystine or L-cysteine was adjusted to 0.001, 0.003, 0.005, 0.01, 0.03, 0.05, or 0.1% (w/v) as the final concentration. […]

Experiment [2] relates to Lactobacillus casei YIT 9029. The experiment in a line: Culture of YIT 9029 in skimmed milk culture medium with L-cystine or L-cysteine. The note with it: YIT 9029, skimmed milk culture medium, 0.05 (w/v) %, 37° C., 12 hours, FIG. 1. The experiment is classed as cell-based. Here is the method:
as §1
A skimmed milk powder (ABC, manufactured by MEGMILK SNOW BRAND Co., Ltd.) was dissolved in RO water at 12% (w/v), the solution was dispensed in 10 mL aliquots in a rimmed medium-sized test tube while replacing the headspace with nitrogen gas and sealed with a butyl rubber stopper. Subsequently, the solution was sterilized by heat in an autoclave (SX-500, manufactured by Tomy Seiko Co., Ltd.) at 115° C. for 30 minutes to provide a skimmed milk culture medium (additive-free culture medium). […]
The pH of a culture medium or a bacterial solution was measured using a desk-top pH meter (F52, manufactured by HORIBA, Ltd.). […]
Regardless of the bacterial strain, a bacterial solution was appropriately diluted with a 0.85% (w/v) sodium chloride aqueous solution (physiological saline solution). […] The grown colonies were counted as the viable cell count. […] Colonies were counted using a colony counter ProtoCOL (manufactured by Synoptics Ltd.).

Setting [3] is: BbY, milk, L-cysteine 0.03% (w/v), filter sterilization (0.22 μm, no heating), culture time 9 h.
[4] abbreviates: BbY, milk, L-cysteine 0.03% (w/v), filter sterilization (0.22 μm, no heating), culture time 12 h.
[5] abbreviates: BbY, milk, L-cysteine 0.03% (w/v), individual heating, culture time 9 h.
Where [6] appears, read: BbY, milk, L-cysteine 0.03% (w/v), individual heating, culture time 12 h.
The mark [7] stands for this setting: BbY, milk, L-cysteine, simultaneous heating, culture time 9 h.
[8] abbreviates: BbY, milk, L-cysteine, simultaneous heating, culture time 12 h.
Setting [9] is: BbY, skimmed milk, 0.05 (w/v) %, cultured 12 hours.
Where [10] appears, read: BbY, skimmed milk, L-cystine 0.03% (w/v), 115° C. for 30 min, after heat sterilization (individual heating), 12 hours.
Where [11] appears, read: BbY, skimmed milk, L-cystine 0.03% (w/v), 115° C. for 30 min, before heat sterilization (simultaneous heating), 12 hours.
The mark [12] stands for this setting: BbY, skimmed milk, L-cystine 0.03% (w/v), 121° C. for 30 min, after heat sterilization (individual heating), 12 hours.
[13] abbreviates: BbY, skimmed milk, L-cystine 0.03% (w/v), 121° C. for 30 min, before heat sterilization (simultaneous heating), 12 hours.

SMILES strings stand for the structures.

With `Cl.N[C@@H](CS)C(=O)O` [L-cysteine, L-cysteine hydrochloride], in experiment [1] (BbY), the “growth rate of the viable cell count, simultaneous versus individual heating (growth curve)” value is recorded as “higher in the case of the simultaneous heating”. Further, the Acidity is 3.62 ml/9 g in experiment [1] (setting [3]); 5.12 ml/9 g in experiment [1] (setting [4]); 3.59 ml/9 g in experiment [1] (setting [5]); 5.04 ml/9 g in experiment [1] (setting [6]); 4.47 ml/9 g in experiment [1] (setting [7]); 8.05 ml/9 g in experiment [1] (setting [8]). In addition, the Viable cell count in experiment [1] (setting [3]) is on record as 8.92 × 10^8 CFU/ml; in experiment [1] (setting [4]), 1.64 × 10^9 CFU/ml; in experiment [1] (setting [5]), 7.77 × 10^8 CFU/ml; in experiment [1] (setting [6]), 1.78 × 10^9 CFU/ml; in experiment [1] (setting [7]) it was 1.34 × 10^9 CFU/ml; in experiment [1] (setting [8]) it was 3.46 × 10^9 CFU/ml. For the same compound, the pH turned out to be 5.40 in experiment [1] (setting [3]); 4.94 in experiment [1] (setting [4]); 5.42 in experiment [1] (setting [5]); 5.02 in experiment [1] (setting [6]); 5.17 in experiment [1] (setting [7]); 4.64 in experiment [1] (setting [8]). The “viable cell count and acidity versus culture medium not containing L-cystine and L-cysteine” value in experiment [1] (BbY) is reported as “increased”. The “concentration at which the viable cell count was maximum” value in experiment [1] (BbY) is 0.03 % (w/v). For the same compound, the “promotion of growth by simultaneous heating with milk” value in experiment [1] (FIGS. 1 and 2) is “promotion of growth was observed”. Further, the “difference in the culture state of BbY, individual heating versus filter sterilization” value in experiment [1] (L-cysteine added to milk at 0.03% (w/v)) is “no difference”. The “growth promotion by addition” value in experiment [2] is recorded as “not observed”.
For the compound `N[C@@H](CSSC[C@H](N)C(=O)O)C(=O)O` [L-cystine], in experiment [1] (BbY), the “growth rate of the viable cell count, simultaneous versus individual heating (growth curve)” value is “higher in the case of the simultaneous heating”; the “viable cell count and acidity versus culture medium not containing L-cystine and L-cysteine” value is “increased”; the “concentration at which the viable cell count was maximum” value is on record as 0.01 % (w/v). For the same compound, in experiment [1] (setting [9]), the “acidity higher with simultaneous heating than individual heating” value turned out to be 1.3 mL/9 g; the “viable cell count increase compared to absence of L-cystine” value is reported as 5.6 times; the “viable cell count, simultaneous heating versus individual heating” value is recorded as “the same”. In experiment [1] (setting [10]), the Acidity is given as 3.82 mL/9 g, the Viable cell count was 1.29 × 10^9 CFU/mL and the pH is reported as 5.34. Besides, in experiment [1] (setting [11]), the Acidity is listed as 5.40 mL/9 g, the Viable cell count was 1.89 × 10^9 CFU/mL and the pH was 5.00. Besides, in experiment [1] (setting [12]), the Acidity is listed as 4.00 mL/9 g, the Viable cell count was 1.12 × 10^9 CFU/mL and the pH was found to be 5.26. In experiment [1] (setting [13]), the Acidity is 5.42 mL/9 g, the Viable cell count was 1.86 × 10^9 CFU/mL and the pH stood at 4.96. For the same compound, in experiment [2], the “growth promotion by addition” value is “not observed”.
